Experimental data as given in PubChem BioAssay (NCI).
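Protocol summary: plate cells (96-well), add compound at 5 concentrations, incubate 48 h, interpolate endpoints linearly. GI50 marks 50% less growth. TGI: total growth inhibition.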

Tests used:
Assay in all cases: NCI anticancer screen, dose series, 48 h
EKVX NSCLC = test system: EKVX NSCLC
HOP-62 NSCLC = test system: HOP-62 NSCLC
MALME-3M melanoma = test system: MALME-3M melanoma
OVCAR-3 ovarian = test system: OVCAR-3 ovarian
OVCAR-5 ovarian = test system: OVCAR-5 ovarian
RPMI-8226 leukemia = test system: RPMI-8226 leukemia
SK-MEL-28 melanoma = test system: SK-MEL-28 melanoma
SN12C renal = test system: SN12C renal
SF-539 CNS = test system: SF-539 CNS
T-47D breast = test system: T-47D breast

Row | SMILES | TGI (EKVX NSCLC) [µM] | TGI (HOP-62 NSCLC) [µM] | TGI (MALME-3M melanoma) [µM] | TGI (OVCAR-3 ovarian) [µM] | TGI (OVCAR-5 ovarian) [µM] | TGI (RPMI-8226 leukemia) [µM] | TGI (SK-MEL-28 melanoma) [µM] | TGI (SN12C renal) [µM] | TGI (SF-539 CNS) [µM] | TGI (T-47D breast) [µM] | GI50 (EKVX NSCLC) [µM] | GI50 (HOP-62 NSCLC) [µM] | GI50 (OVCAR-3 ovarian) [µM] | GI50 (OVCAR-5 ovarian) [µM] | GI50 (RPMI-8226 leukemia) [µM] | GI50 (SF-539 CNS) [µM] | GI50 (SK-MEL-28 melanoma) [µM] | GI50 (SN12C renal) [µM] | GI50 (T-47D breast) [µM]
1 | O=C1CCN2C(=O)CCN12 | > 100 | > 100 | > 100 | > 100 | > 100 | > 100 | > 100 | > 100 |  |  |  |  |  |  |  |  |  |  | 
2 | O=C1C2C3C=C4c5ccccc5N(c5ccccc5)C4(C2C(=O)N1Cc1ccccc1)C1C(=O)N(Cc2ccccc2)C(=O)C31 (centres undefined) |  |  | > 100 |  | > 100 |  | > 100 | > 100 | > 100 |  |  |  |  |  |  |  |  |  | 
3 | Clc1nc(Cl)c(Cl)c(-c2ccccc2)n1 | 30.7 | 18.1 | 53.7 | 5.38 | 42.1 | > 100 | 32.8 | 53.9 | 31.5 |  |  |  |  |  |  |  |  |  | 
4 | CS/C(N)=N\NC(=O)CCC(=O)Nc1ccccc1C(F)(F)F | > 100 | > 100 | > 100 | > 100 | > 100 | > 100 | > 100 | > 100 | > 100 |  |  |  |  |  |  |  |  |  | 
5 | O=C1OC(c2ccccc2)=N/C1=C\c1cccc2ccccc12 |  | > 100 | > 100 | > 100 | > 100 | > 100 | > 100 | > 100 | > 100 |  |  |  |  |  |  |  |  |  | 
6 | CCOc1ccccc1NC(=O)CC(C(=O)OC)C(=O)C(=O)OC (centres undefined) | > 100 | > 100 | > 100 | > 100 | > 100 | > 100 | > 100 | > 100 | > 100 |  |  |  |  |  |  |  |  |  | 
7 | CC(C)C(Nc1c2ccccc2nc2ccccc12)C(=O)O (centres undefined) | > 100 |  | > 100 | > 100 | > 100 | > 100 | > 100 | > 100 | > 100 |  |  |  |  |  |  |  |  |  | 
8 | COC(=O)C1=C(C)N(NC(=O)OC(C)(C)C)C(=O)C1=P(c1ccccc1)(c1ccccc1)c1ccccc1 | > 100 | > 100 | > 100 | > 100 | > 100 | > 100 |  | > 100 | > 100 |  |  |  |  |  |  |  |  |  | 
9 | COc1cc(C=C2C(=O)NC(=O)NC2=O)cc(OC)c1OC | > 100 | > 100 | > 100 | > 100 | > 100 | > 100 | > 100 | > 100 | > 100 |  |  |  |  |  |  |  |  |  | 
10 | c1ccc(CNn2nnc3ccccc32)cc1 | > 100 | > 100 | > 100 | > 100 | > 100 | > 100 | > 100 | > 100 |  |  |  |  |  |  |  |  |  |  | 
11 | Nn1c(=O)n(Cc2ccccc2)n(-c2ccccc2)c1=O |  | > 100 | > 100 | > 100 | > 100 | > 100 | > 100 | > 100 | > 100 |  |  |  |  |  |  |  |  |  | 
12 | O=C(Cc1ccccc1)NN1C(=O)C(Cl)C1c1cc(Br)ccc1O (centres undefined) | 23.9 | 52.9 | > 100 | > 100 | > 100 | > 100 | > 100 | > 100 |  |  |  |  |  |  |  |  |  |  | 
13 | Cc1cn(C2CC(O)C(CO)O2)c(=O)n2nnnc12 (centres undefined) | > 100 | > 100 | > 100 | > 100 | > 100 | > 100 | > 100 |  | > 100 |  |  |  |  |  |  |  |  |  | 
14 | COc1cc2c(cc1OC)C(CC(=O)NN=C(C)C)NCC2 (centres undefined) | > 100 | > 100 | > 100 | > 100 | > 100 | > 100 | > 100 | > 100 | > 100 |  |  |  |  |  |  |  |  |  | 
15 | CCOC(=O)C1=C(C)N(NC(=O)Nc2ccccc2)C(=O)C1=P(c1ccccc1)(c1ccccc1)c1ccccc1 | > 100 | > 100 | > 100 | > 100 | > 100 | 82.5 |  | > 100 | 53.3 |  |  |  |  |  |  |  |  |  | 
16 | C[C@@H]1CC(=O)C2CCCC1C2=O (some centres undefined) | > 100 | > 100 | > 100 | > 100 | > 100 | > 100 | > 100 | > 100 | > 100 |  |  |  |  |  |  |  |  |  | 
17 | CCOC(=O)CC1(C(=O)OCC)c2[nH]c3ccccc3c2CCN1Cc1ccccc1 (centres undefined) | 50.8 | 33.6 | 37.3 | 27.4 | 39.5 |  | 39.4 | 27.8 | 35.8 |  |  |  |  |  |  |  |  |  | 
18 | COc1ccc(C(=O)C(C(=O)CCC(=O)Nc2cccc(Cl)c2)c2ccc(OC)cc2)cc1 (centres undefined) | > 100 | > 100 | > 100 | > 100 | > 100 | > 100 | > 100 | > 100 | > 100 |  |  |  |  |  |  |  |  |  | 
19 | COc1ccccc1CCc1cc(OC)c(OC)c(OC)c1 | > 100 | > 100 | > 100 | > 100 | 51.3 | 68.8 | > 100 | > 100 | > 100 |  |  |  |  |  |  |  |  |  | 
20 | CC(C)(C)c1ccc2c(c1)S(=O)(=O)Nc1ccccc1NS(=O)(=O)c1cc(C(C)(C)C)ccc1OCCOCCOCCO2 | > 100 | > 100 | 97 | > 100 | > 100 |  | > 100 | > 100 | > 100 |  |  |  |  |  |  |  |  |  | 
21 | C1=CC2SSSC2C1 (centres undefined) | > 100 | > 100 | > 100 | > 100 | > 100 | > 100 | > 100 | > 100 | > 100 |  |  |  |  |  |  |  |  |  | 
22 | Cc1cc(Cl)ccc1N=C1NC(=O)C(CC(=O)Nc2ccc([N+](=O)[O-])cc2[N+](=O)[O-])S1 (centres undefined) | > 100 | 85 | 73.2 | 73.8 | 86.8 | 53.6 | > 100 | 90.7 | 59.1 |  |  |  |  |  |  |  |  |  | 
23 | OC[C@H]1CCCC1O (some centres undefined) |  |  | > 100 | > 100 | > 100 | > 100 | > 100 | > 100 | > 100 | > 100 |  |  |  |  |  |  |  |  | 
24 | N=C1C(c2nc3ccccc3s2)=C(O)CN1c1cc(C(F)(F)F)ccc1Cl | > 100 | > 100 |  | 40.4 | > 100 | 53 | > 100 | 69.6 | 52.9 | > 100 | 62.7 | 18.4 | 4.47 | 70.2 | 7.46 | 10 | 69 | 15.5 | 48.1
